Experiments:
FES^S700C [1] = molecular target: T1, FES^S700C (Homo sapiens, UniProt P07332, S700C); test: In vitro TR-FRET kinase assay; format: biochemical; set-up: human FES cDNA encoding residues 448–822 or human FER cDNA encoding residues 448–820 was amplified by PCR; made in house; host or cells: E. coli BL21(DE3), co-expressing YopH phosphatase; conditions: for Apparent fold selectivity: IC50 on FES^WT divided by IC50 on FES^S700C; for IC50: read-out: pIC50 FES^S700C (converted); for Residual activity (%): FES S700C, mean, n=3
T1 sequence (P07332 448-822 S700C): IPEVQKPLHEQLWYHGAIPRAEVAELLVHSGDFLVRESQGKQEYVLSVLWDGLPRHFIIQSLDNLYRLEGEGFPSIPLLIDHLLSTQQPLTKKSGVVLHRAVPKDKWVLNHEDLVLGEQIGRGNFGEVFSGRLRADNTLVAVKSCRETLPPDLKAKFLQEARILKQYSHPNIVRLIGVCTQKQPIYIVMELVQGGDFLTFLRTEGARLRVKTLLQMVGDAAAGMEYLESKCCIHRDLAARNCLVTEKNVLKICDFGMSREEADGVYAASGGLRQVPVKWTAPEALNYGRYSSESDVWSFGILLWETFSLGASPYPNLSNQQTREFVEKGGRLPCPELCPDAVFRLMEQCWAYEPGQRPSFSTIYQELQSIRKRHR

FES^S700C [2] = molecular target: T1, FES^S700C; test: PamChip microarray peptide phosphorylation; format: biochemical; set-up: human FES cDNA encoding residues 448–822 or human FER cDNA encoding residues 448–820 was amplified by PCR; made in house; host or cells: E. coli BL21(DE3), co-expressing YopH phosphatase; conditions: peptide substrate phosphorylated by FES - S700C

## Nc1ncnc2c1ncn2[C@@H]1O[C@H](COP(=O)(O)OP(=O)(O)OP(=O)(O)O)[C@@H](O)[C@H]1O [ATP]
FES^S700C [1]; FES^S700C, TR-FRET, 60 min, read-out: ATP KM
  Km: 0.79 µM

## COc1ccccc1Nc1ncc(Cl)c(Nc2ccccc2S(=O)(=O)C(C)C)n1 [Compound 2]
FES^S700C [1]
  Apparent fold selectivity: 2.5 fold
FES^S700C [1]; TR-FRET assay, 5 µM ATP, n = 3
  IC50: 15.8 nM

## C=CC(=O)Nc1ccccc1Nc1nc(Nc2ccccc2OC)ncc1Cl [Compound 4]
FES^S700C [1]
  Apparent fold selectivity: 238 fold
FES^S700C [1]; TR-FRET assay, 5 µM ATP, n = 3
  IC50: 3.98 nM

## CCC(=O)Nc1ccccc1Nc1nc(Nc2ccccc2OC)ncc1Cl [Compound 5]
FES^S700C [1]; TR-FRET assay, 5 µM ATP, n = 3
  pIC50 FES^S700C: low inhibitory potency
  IC50: 6310 nM

## COc1ccccc1Nc1ncc(Cl)c(Nc2ccccc2S(=O)(=O)C(C)C)n1 [Supplementary Figure 1c]
FES^S700C [1]; log[inhibitor] (M) = -5
  Residual activity (%): 0.2233%
FES^S700C [1]; log[inhibitor] (M) = -5.52288
  Residual activity (%): 0.2556%
FES^S700C [1]; log[inhibitor] (M) = -6
  Residual activity (%): -0.06933%
FES^S700C [1]; log[inhibitor] (M) = -6.52288
  Residual activity (%): 4.851%
FES^S700C [1]; log[inhibitor] (M) = -7
  Residual activity (%): 14.3041%
FES^S700C [1]; log[inhibitor] (M) = -7.52288
  Residual activity (%): 33.9502%
FES^S700C [1]; log[inhibitor] (M) = -8
  Residual activity (%): 66.7428%
FES^S700C [1]; log[inhibitor] (M) = -8.52288
  Residual activity (%): 88.3714%
FES^S700C [1]; log[inhibitor] (M) = -9
  Residual activity (%): 94.1217%
FES^S700C [1]; log[inhibitor] (M) = -9.52288
  Residual activity (%): 96.7458%
FES^S700C [1]; log[inhibitor] (M) = -10
  Residual activity (%): 89.1056%
FES^S700C [1]; log[inhibitor] (M) = -10.5229
  Residual activity (%): 99.8276%
FES^S700C [1]; log[inhibitor] (M) = -11
  Residual activity (%): 106.567%

## C=CC(=O)Nc1cccc(Nc2nc(Nc3ccccc3OC)ncc2Cl)c1 [Supplementary Figure 1d]
FES^S700C [1]; log[inhibitor] (M) = -5
  Residual activity (%): -0.2497%
FES^S700C [1]; log[inhibitor] (M) = -5.52288
  Residual activity (%): -0.5097%
FES^S700C [1]; log[inhibitor] (M) = -6
  Residual activity (%): -0.8205%
FES^S700C [1]; log[inhibitor] (M) = -6.52288
  Residual activity (%): -0.4059%
FES^S700C [1]; log[inhibitor] (M) = -7
  Residual activity (%): -0.7051%
FES^S700C [1]; log[inhibitor] (M) = -7.52288
  Residual activity (%): -0.1368%
FES^S700C [1]; log[inhibitor] (M) = -8
  Residual activity (%): 11.6016%
FES^S700C [1]; log[inhibitor] (M) = -8.52288
  Residual activity (%): 70.8547%
FES^S700C [1]; log[inhibitor] (M) = -9
  Residual activity (%): 85.0509%
FES^S700C [1]; log[inhibitor] (M) = -9.52288
  Residual activity (%): 98.0879%
FES^S700C [1]; log[inhibitor] (M) = -10
  Residual activity (%): 85.4934%
FES^S700C [1]; log[inhibitor] (M) = -10.5229
  Residual activity (%): 94.4068%
FES^S700C [1]; log[inhibitor] (M) = -11
  Residual activity (%): 106.971%

## C=CC(=O)Nc1ccccc1Nc1nc(Nc2ccccc2OC)ncc1Cl [Supplementary Figure 1e]
FES^S700C [1]; log[inhibitor] (M) = -5
  Residual activity (%): 5.657%
FES^S700C [1]; log[inhibitor] (M) = -5.52288
  Residual activity (%): 10.8053%
FES^S700C [1]; log[inhibitor] (M) = -6
  Residual activity (%): 28.2387%
FES^S700C [1]; log[inhibitor] (M) = -6.52288
  Residual activity (%): 69.3014%
FES^S700C [1]; log[inhibitor] (M) = -7
  Residual activity (%): 75.3706%
FES^S700C [1]; log[inhibitor] (M) = -7.52288
  Residual activity (%): 96.1185%
FES^S700C [1]; log[inhibitor] (M) = -8
  Residual activity (%): 98.0581%
FES^S700C [1]; log[inhibitor] (M) = -8.52288
  Residual activity (%): 106.349%
FES^S700C [1]; log[inhibitor] (M) = -9
  Residual activity (%): 109.01%
FES^S700C [1]; log[inhibitor] (M) = -9.52288
  Residual activity (%): 116.606%
FES^S700C [1]; log[inhibitor] (M) = -10
  Residual activity (%): 111.768%
FES^S700C [1]; log[inhibitor] (M) = -10.5229
  Residual activity (%): 102.117%
FES^S700C [1]; log[inhibitor] (M) = -11
  Residual activity (%): 99.3612%

## CCC(=O)Nc1ccccc1Nc1nc(Nc2ccccc2OC)ncc1Cl [Supplementary Figure 1f]
FES^S700C [1]; log[inhibitor] (M) = -5
  Residual activity (%): 51.0323%
FES^S700C [1]; log[inhibitor] (M) = -5.52288
  Residual activity (%): 52.0081%
FES^S700C [1]; log[inhibitor] (M) = -6
  Residual activity (%): 80.9285%
FES^S700C [1]; log[inhibitor] (M) = -6.52288
  Residual activity (%): 101.29%
FES^S700C [1]; log[inhibitor] (M) = -7
  Residual activity (%): 99.7119%
FES^S700C [1]; log[inhibitor] (M) = -7.52288
  Residual activity (%): 103.019%
FES^S700C [1]; log[inhibitor] (M) = -8
  Residual activity (%): 101.749%

## AMPE_5_17 (EREGSKRYCIQTK; UniProt Q07075 5-17, looked up, fragment)
FES^S700C [2]
  Relative phosphorylation (% of highest signal): -0.5 % of highest signal

## ART_004_EAIYAAPFAKKKXC
FES^S700C [2]
  Relative phosphorylation (% of highest signal): 8.3 % of highest signal

## DDR1_506_518 (LLLSNPAYRLLLA; UniProt Q08345 506-518, looked up, fragment)
FES^S700C [2]
  Relative phosphorylation (% of highest signal): -0.9 % of highest signal

## EFS_246_258_Y253F (GGTDEGIFDVPLL; UniProt O43281 246-258, looked up, fragment Y253F)
FES^S700C [2]
  Relative phosphorylation (% of highest signal): -1.4 % of highest signal

## EPHA2_581_593 (QLKPLKTYVDPHT; UniProt P29317 581-593, looked up, fragment)
FES^S700C [2]
  Relative phosphorylation (% of highest signal): 0.144 % of highest signal

## EPHA4_921_933 (QAIKMDRYKDNFT; UniProt P54764 921-933, looked up, fragment)
FES^S700C [2]
  Relative phosphorylation (% of highest signal): -0.7 % of highest signal

## EPOR_361_373 (SEHAQDTYLVLDK; UniProt P19235 361-373, looked up, fragment)
FES^S700C [2]
  Relative phosphorylation (% of highest signal): 5.7 % of highest signal

## MBP_259_271 (FGYGGRASDYKSA; UniProt P02686 259-271, looked up, fragment)
FES^S700C [2]
  Relative phosphorylation (% of highest signal): -0.258 % of highest signal

## MBP_263_275 (GRASDYKSAHKGF; UniProt P02686 263-275, looked up, fragment)
FES^S700C [2]
  Relative phosphorylation (% of highest signal): -0.5 % of highest signal

## MK01_198_210 (IMLNSKGYTKSID; UniProt P28482 198-210, looked up, fragment)
FES^S700C [2]
  Relative phosphorylation (% of highest signal): -1.1 % of highest signal

## NPT2A_501_513 (AKALGKRTAKYRW; UniProt Q06495 501-513, looked up, fragment)
FES^S700C [2]
  Relative phosphorylation (% of highest signal): 0.557 % of highest signal

## NTRK2_509_521 (PVIENPQYFGITN; UniProt Q16620 509-521, looked up, fragment)
FES^S700C [2]
  Relative phosphorylation (% of highest signal): -1.0 % of highest signal

## ODBA_340_352_D340K (KDSSAYRSVDEVN; UniProt P12694 340-352, looked up, variant D340K)
FES^S700C [2]
  Relative phosphorylation (% of highest signal): -0.7 % of highest signal

## PERI_458_470 (QRSELDKSSAHSY; UniProt P41219 458-470, looked up, fragment)
FES^S700C [2]
  Relative phosphorylation (% of highest signal): -1.0 % of highest signal

## STA5A_687_699 (LAKAVDGYVKPQI; UniProt P42229 687-699, looked up, fragment)
FES^S700C [2]
  Relative phosphorylation (% of highest signal): -0.9 % of highest signal

## STAT1_694_706 (DGPKGTGYIKTEL; UniProt P42224 694-706, looked up, fragment)
FES^S700C [2]
  Relative phosphorylation (% of highest signal): -0.9 % of highest signal

## STAT4_686_698 (TERGDKGYVPSVF; UniProt Q14765 686-698, looked up, fragment)
FES^S700C [2]
  Relative phosphorylation (% of highest signal): -0.317 % of highest signal

## STAT6_634_646 (MGKDGRGYVPATI; UniProt P42226 634-646, looked up, fragment)
FES^S700C [2]
  Relative phosphorylation (% of highest signal): -0.6 % of highest signal

## VGFR1_1046_1058_Y1048F (DIFKNPDYVRKGD; UniProt P17948 1046-1058, looked up, variant Y1048F)
FES^S700C [2]
  Relative phosphorylation (% of highest signal): -0.9 % of highest signal

## VGFR1_1049_1061 (KNPDYVRKGDTRL; UniProt P17948 1049-1061, looked up, fragment)
FES^S700C [2]
  Relative phosphorylation (% of highest signal): -0.7 % of highest signal

## VGFR1_1162_1174 (VQQDGKDYIPINA; UniProt P17948 1162-1174, looked up, fragment)
FES^S700C [2]
  Relative phosphorylation (% of highest signal): 4.4 % of highest signal

## VGFR1_1206_1218 (GSSDDVRYVNAFK; UniProt P17948 1206-1218, looked up, fragment)
FES^S700C [2]
  Relative phosphorylation (% of highest signal): 0.24 % of highest signal

## VGFR1_1235_1247 (ATSMFDDYQGDSS; UniProt P17948 1235-1247, looked up, fragment)
FES^S700C [2]
  Relative phosphorylation (% of highest signal): -0.074 % of highest signal

## VGFR1_1320_1332_C1320K/C1321K (KKSPPPDYNSVVL; UniProt P17948 1320-1332, looked up, variant C1320K C1321K)
FES^S700C [2]
  Relative phosphorylation (% of highest signal): 4.5 % of highest signal

## VGFR2_944_956 (RFRQGKDYVGAIP; UniProt P35968 944-956, looked up, fragment)
FES^S700C [2]
  Relative phosphorylation (% of highest signal): 1.4 % of highest signal

## VGFR2_989_1001 (EEAPEDLYKDFLT; UniProt P35968 989-1001, looked up, fragment)
FES^S700C [2]
  Relative phosphorylation (% of highest signal): 14.2 % of highest signal

## VGFR2_1046_1058 (DFGLARDIYKDPD; UniProt P35968 1046-1058, looked up, fragment)
FES^S700C [2]
  Relative phosphorylation (% of highest signal): 2.1 % of highest signal

Source: article PMC7316778 (Nature Communications, 2020)
